Data taken from patent US20090131481A1, “Transcription Factor Modulating Compounds and Methods of Use Thereof” (Paratek Pharmaceuticals, Inc., published 2009).
Read-outs that look alike come from different tables or passages of the source.

Tests used:
LcrF (VirF) = LcrF (VirF) (Yersinia pestis, UniProt P28808); experiment: biochemical; assay type: binding, Y. pseudotuberculosis
ExsA = target: T1, ExsA (Pseudomonas aeruginosa, UniProt P26993); experiment: Chemiluminescence-based ExsA-DNA binding assay; set-up: species or system P. aeruginosa; conditions: Table 7, cell-free system; read-out: ExsA EC50
T1 construct: made in house
T1 sequence (P26993 1-278): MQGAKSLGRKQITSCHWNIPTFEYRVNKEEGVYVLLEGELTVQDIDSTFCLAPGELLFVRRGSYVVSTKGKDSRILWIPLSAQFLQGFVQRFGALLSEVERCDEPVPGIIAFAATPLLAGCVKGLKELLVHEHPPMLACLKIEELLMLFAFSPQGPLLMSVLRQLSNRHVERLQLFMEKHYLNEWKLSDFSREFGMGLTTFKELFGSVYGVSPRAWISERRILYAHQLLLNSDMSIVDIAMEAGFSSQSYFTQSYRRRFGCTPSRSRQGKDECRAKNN

Y. pseudotuberculosis = experiment: microbe, parasite or virus in culture; conditions: Yersinia pseudotuberculosis, J774, read-out: % Cytotoxicity
P. aeruginosa = P. aeruginosa cytotoxicity whole cell assay (J774 cells, LDH release); conditions: relative to vehicle treated cells infected with wild type P. aeruginosa
[1] = EC50 for inhibition of LcrF(VirF)-DNA binding

LcrF (VirF), sequence (P28808 whole entry, looked up): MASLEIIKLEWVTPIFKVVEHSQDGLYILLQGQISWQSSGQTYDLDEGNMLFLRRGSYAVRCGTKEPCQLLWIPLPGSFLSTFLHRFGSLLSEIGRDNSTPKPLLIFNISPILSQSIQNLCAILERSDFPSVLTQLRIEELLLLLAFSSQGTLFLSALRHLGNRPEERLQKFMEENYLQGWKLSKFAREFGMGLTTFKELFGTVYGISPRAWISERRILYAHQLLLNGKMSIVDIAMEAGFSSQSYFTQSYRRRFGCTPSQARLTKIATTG

SMILES | EC50 (LcrF (VirF); [1]) | EC50 (ExsA) | activity at 50 µg/mL (Y. pseudotuberculosis) | Cytotoxicity at 50 μg/mL Pseudomonas (P. aeruginosa) | EC50 (LcrF (VirF); read-out: EC50 for inhibition of LcrF(VirF)-DNA binding)
O=C(Nc1ccc(-c2nc3ccc([N+](=O)[O-])cc3n2O)cc1)c1ccc(-c2cncnc2)cc1 [DC] | > 25 µM | 10 to 25 µM | 75 to 99% | * (reduced P. aeruginosa cytotoxicity to 99-75% of untreated, wild type levels at 50 mg/mL) | –
CN(C)c1cc2nc(-c3ccc(NC(=O)/C=C/c4ccc(F)cc4)cc3)n(O)c2cc1[N+](=O)[O-] [EZ, N-[4-(5-Dimethylamino-1-hydroxy-6-nitro-1H-benzoimidazol-2-yl)-phenyl]-3-(4-fluorocinnamyl)-amide] | > 25 µM | 10 to 25 µM | 75 to 99% | ** (reduced P. aeruginosa cytotoxicity below 75% of untreated, wild type levels at 50 mg/mL) | –
O=C(Nc1ccc(-c2nc3ccc([N+](=O)[O-])cc3n2O)cc1)c1ccccc1O [DN] | 10 to 25 µM | 10 to 25 µM | < 75% | * (reduced P. aeruginosa cytotoxicity to 99-75% of untreated, wild type levels at 50 mg/mL) | –
CC(=O)c1ccc(C(=O)Nc2ccc(-c3nc4ccc(C#N)cc4n3O)cc2)cc1 [AA] | > 25 µM | – | < 75% | ** (reduced P. aeruginosa cytotoxicity below 75% of untreated, wild type levels at 50 mg/mL) | –
CCc1cc(-c2nc3ccc([N+](=O)[O-])cc3n2O)ccc1NC(=O)c1ccc(C(C)=O)cc1 [DL] | 10 to 25 µM | 10 to 25 µM | < 75% | * (reduced P. aeruginosa cytotoxicity to 99-75% of untreated, wild type levels at 50 mg/mL) | –
O=C(Nc1ccc(-c2nc3ccc([N+](=O)[O-])cc3n2O)c(F)c1)c1ccc(F)cc1 [DS] | 10 to 25 µM | 10 to 25 µM | < 75% | * (reduced P. aeruginosa cytotoxicity to 99-75% of untreated, wild type levels at 50 mg/mL) | –
O=C(Nc1ccc(-c2nc3ccc([N+](=O)[O-])cc3n2O)cc1)c1ccc(F)c(F)c1 [DA] | 10 to 25 µM | 10 to 25 µM | < 75% | * (reduced P. aeruginosa cytotoxicity to 99-75% of untreated, wild type levels at 50 mg/mL) | –
Cc1cc2nc(-c3ccc(NC(=O)c4ccc(-c5cnco5)cc4)cc3)n(O)c2cc1[N+](=O)[O-] [EX, N-[4-(1-Hydroxy-5-methyl-6-nitro-1H-benzoimidazol-2-yl)-phenyl]-4-oxazol-5-v-benzamide] | > 25 µM | – | 75 to 99% | ** (reduced P. aeruginosa cytotoxicity below 75% of untreated, wild type levels at 50 mg/mL) | –
N#Cc1ccc2nc(-c3ccc(NC(=O)c4ccc(F)cc4)cc3)n(O)c2c1 [CV] | > 25 µM | 10 to 25 µM | < 75% | * (reduced P. aeruginosa cytotoxicity to 99-75% of untreated, wild type levels at 50 mg/mL) | –
O=C(Nc1ccc(-c2nc3ccc([N+](=O)[O-])cc3n2O)cc1)/C(F)=C/c1ccccc1 [CR] | 10 to 25 µM | – | < 75% | ** (reduced P. aeruginosa cytotoxicity below 75% of untreated, wild type levels at 50 mg/mL) | –
Cc1ccc(/C=C/C(=O)Nc2ccc(-c3nc4ccc(C#N)cc4n3O)cc2)cc1 [CP] | 10 to 25 µM | – | 75 to 99% | * (reduced P. aeruginosa cytotoxicity to 99-75% of untreated, wild type levels at 50 mg/mL) | –
O=C(/C=C/c1ccc(-n2ccnc2)cc1)Nc1ccc(-c2nc3ccc([N+](=O)[O-])cc3n2O)cc1 [AM, (E)-N-[4-(1-Hydroxy-6-nitro-1H-benzoimidazol-2-yl)-phenyl]-3-(4-imidazol-1-yl-phenyl)-acrylamide] | – | – | 75 to 99% | ** (reduced P. aeruginosa cytotoxicity below 75% of untreated, wild type levels at 50 mg/mL) | > 25 µM
CCOc1cc2nc(-c3ccc(NC(=O)/C=C/c4ccc(F)cc4)cc3)n(O)c2cc1[N+](=O)[O-] [EV, (E)-N-[4-(5-Ethoxy-1-hydroxy-6-nitro-1H-benzoimidazol-2-yl)-phenyl]-3-(4-fluoro-phenyl)-acrylamide] | 10 to 25 µM | – | 75 to 99% | ** (reduced P. aeruginosa cytotoxicity below 75% of untreated, wild type levels at 50 mg/mL) | –
COc1cc(NC(=O)c2ccc(F)cc2)ccc1-c1nc2ccc([N+](=O)[O-])cc2n1O [DT] | > 25 µM | 10 to 25 µM | < 75% | * (reduced P. aeruginosa cytotoxicity to 99-75% of untreated, wild type levels at 50 mg/mL) | –
